Test results from patent publication US7592345B2, “Piperazine and [1,4]diazepan derivatives as NK antagonists” (Hoffmann-La Roche Inc., priority 2007, dated 2009).

These molecules were tested against T1, recombinant human NK3 receptor (Homo sapiens, UniProt P29371) (assay: [3H]SR142801 competition binding assay). Details: [3H]SR142801, membranes from HEK293 cells transiently expressing recombinant human NK3 receptor; read-out: hNK3 Ki.
T1 construct: expressed in transfected cells; host or cells: HEK293 cells (transient expression), membranes
T1 sequence (P29371 1-465): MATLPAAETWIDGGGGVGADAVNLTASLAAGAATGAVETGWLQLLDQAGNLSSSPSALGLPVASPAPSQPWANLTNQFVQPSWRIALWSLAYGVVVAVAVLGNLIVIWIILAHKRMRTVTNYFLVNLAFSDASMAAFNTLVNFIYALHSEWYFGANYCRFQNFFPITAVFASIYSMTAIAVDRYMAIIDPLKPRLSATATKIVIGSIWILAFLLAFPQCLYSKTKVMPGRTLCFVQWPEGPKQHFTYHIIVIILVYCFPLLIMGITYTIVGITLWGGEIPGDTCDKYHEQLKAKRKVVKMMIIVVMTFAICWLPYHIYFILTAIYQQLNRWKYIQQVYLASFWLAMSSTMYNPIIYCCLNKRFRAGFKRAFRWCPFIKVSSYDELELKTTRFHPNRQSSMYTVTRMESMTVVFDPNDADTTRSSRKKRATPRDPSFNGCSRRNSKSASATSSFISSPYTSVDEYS
Method: [^3H]SR142801 Competition Binding Assay
hNK3 receptor binding experiment were performed using [^3H]SR142801 (Catalog No. TRK1035, specific activity: 74.0 Ci/mmol, Amersham, GE Healthcare UK limited, Buckinghamshire, UK) and membrane isolated from HEK293 cells transiently expressing recombinant human NK3 receptor. After thawing, the membrane homogenates were centrifuged at 48,000×g for 10 min at 4° C., the pellets were resuspended in the 50 mM Tris-HCl, 4 mM MnCl2, 1 μM phosphoramidon, 0.1% BSA binding buffer at pH 7.4 to a final assay concentration of 5 μg protein/well. For inhibition experiments, membranes were incubated with [^3H]SR142801 at a concentration equal to KD value of radioligand and 10 concentrations of the inhibitory compound (0.0003-10 μM) (in a total reaction volume of 500 μl) for 75 min at room temperature (RT). At the end of the incubation, membranes were filtered onto unitfilter (96-well white microplate with bonded GF/C filter preincubated 1 h in 0.3% PEI+0.3% BSA, Packard BioScience, Meriden, Conn.) with a Filtermate 196 harvester (Packard BioScience) and washed 4 times with ice-cold 50 mM Tris-HCl, pH 7.4 buffer. Nonspecific binding was measured in the presence of 10 μM SB222200 for both radioligands. The radioactivity on the filter was counted (5 min) on a Packard Top-count microplate scintillation counter with quenching correction after addition of 45 μl of microscint 40 (Canberra Packard S. A., Zürich, Switzerland) and shaking for 1 h. Inhibition curves were fitted according to the Hill equation: y=100/(1+(x/IC50)^nH), where nH=slope factor using Excel-fit 4 software (Microsoft). IC50 values were derived from the inhibition curve and the affinity constant (Ki) values were calculated using the Cheng-Prussoff equation Ki=IC50/(1+[L]/KD) where [L] is the concentration of radioligand and KD is its dissociation constant at the receptor, derived from the saturation isotherm. All experiments were performed in duplicate and the mean±standard error (SEM) of the individual Ki values was calculated.

| SMILES | Ki [µM] |
| --- | --- |
| C[C@@H]1CN(CCC(C)(C(=O)NCc2cc(F)ccc2C(F)(F)F)c2ccc(Cl)c(Cl)c2)CCN1S(C)(=O)=O (stereo partly drawn) [Example 44, 2-(3,4-Dichloro-phenyl)-N-(5-fluoro-2-trifluoromethyl-benzyl)-4-((R)-4-methanesulfonyl-3-methyl-piperazin-1-yl)-2-methyl-butyramide] | 0.212 |
| C[C@@H]1CN(CCC(C)(C(=O)NCc2ccc(C(F)(F)F)cc2)c2ccc(Cl)c(Cl)c2)CCN1S(C)(=O)=O (stereo partly drawn) [Example 45, 2-(3,4-Dichloro-phenyl)-4-((R)-4-methanesulfonyl-3-methyl-piperazin-1-yl)-2-methyl-N-(4-trifluoromethyl-benzyl)-butyramide] | 0.0333 |
| C[C@@H]1CN(CCC(C)(C(=O)NCc2cc(C(F)(F)F)ccc2F)c2ccc(Cl)c(Cl)c2)CCN1S(C)(=O)=O (stereo partly drawn) [Example 46, 2-(3,4-Dichloro-phenyl)-N-(2-fluoro-5-trifluoromethyl-benzyl)-4-((R)-4-methanesulfonyl-3-methyl-piperazin-1-yl)-2-methyl-butyramide] | 0.0995 |
| CC(NC(=O)C(C)(CCN1CCN(S(C)(=O)=O)[C@H](C)C1)c1ccc(Cl)c(Cl)c1)c1ccc(Cl)cc1 (stereo partly drawn) [Example 47, N-[1-(4-Chloro-phenyl)-ethyl]-2-(3,4-dichloro-phenyl)-4-((R)-4-methanesulfonyl-3-methyl-piperazin-1-yl)-2-methyl-butyramide] | 0.0159 |
| COc1cccc(CN(C)C(=O)C(C)(CCN2CCN(S(C)(=O)=O)[C@H](C)C2)c2ccc(Cl)c(Cl)c2)c1 (stereo partly drawn) [Example 48, 2-(3,4-Dichloro-phenyl)-4-((R)-4-methanesulfonyl-3-methyl-piperazin-1-yl)-N-(3-methoxy-benzyl)-2,N-dimethyl-butyramide] | 0.263 |
| C[C@@H]1CN(CCC(C)(C(=O)N(C)Cc2ccccc2Cl)c2ccc(Cl)c(Cl)c2)CCN1S(C)(=O)=O (stereo partly drawn) [Example 49, N-(2-Chloro-benzyl)-2-(3,4-dichloro-phenyl)-4-((R)-4-methanesulfonyl-3-methyl-piperazin-1-yl)-2,N-dimethyl-butyramide] | 0.088 |
| CC(NC(=O)C(C)(CCN1CCN(S(C)(=O)=O)[C@H](C)C1)c1ccc(Cl)c(Cl)c1)c1ccc(Cl)c(Cl)c1 (stereo partly drawn) [Example 50, 2-(3,4-Dichloro-phenyl)-N-[1-(3,4-dichloro-phenyl)-ethyl]-4-((R)-4-methanesulfonyl-3-methyl-piperazin-1-yl)-2-methyl-butyramide] | 0.0258 |
| C[C@@H]1CN(CCC(C)(C(=O)NCc2cccc(OC(F)(F)F)c2)c2ccc(Cl)c(Cl)c2)CCN1S(C)(=O)=O (stereo partly drawn) [Example 51, 2-(3,4-Dichloro-phenyl)-4-((R)-4-methanesulfonyl-3-methyl-piperazin-1-yl)-2-methyl-N-(3-trifluoromethoxy-benzyl)-butyramide] | 0.0146 |
| C[C@@H]1CN(CCC(C)(C(=O)NCc2ccc(Cl)c(F)c2)c2ccc(Cl)c(Cl)c2)CCN1S(C)(=O)=O (stereo partly drawn) [Example 52, N-(4-Chloro-3-fluoro-benzyl)-2-(3,4-dichloro-phenyl)-4-((R)-4-methanesulfonyl-3-methyl-piperazin-1-yl)-2-methyl-butyramide] | 0.0464 |
| C[C@@H]1CN(CCC(C)(C(=O)NCc2ccc(OC(F)(F)F)cc2)c2ccc(Cl)c(Cl)c2)CCN1S(C)(=O)=O (stereo partly drawn) [Example 53, 2-(3,4-Dichloro-phenyl)-4-((R)-4-methanesulfonyl-3-methyl-piperazin-1-yl)-2-methyl-N-(4-trifluoromethoxy-benzyl)-butyramide] | 0.0228 |
| C[C@@H]1CN(CCC(C)(C(=O)NCc2ccc(Cl)c(C(F)(F)F)c2)c2ccc(Cl)c(Cl)c2)CCN1S(C)(=O)=O (stereo partly drawn) [Example 54, N-(4-Chloro-3-trifluoromethyl-benzyl)-2-(3,4-dichloro-phenyl)-4-((R)-4-methanesulfonyl-3-methyl-piperazin-1-yl)-2-methyl-butyramide] | 0.0175 |
| C[C@@H]1CN(CCC(C)(C(=O)N(C)Cc2ccc(C(F)(F)F)cc2)c2ccc(Cl)c(Cl)c2)CCN1S(C)(=O)=O (stereo partly drawn) [Example 55, 2-(3,4-Dichloro-phenyl)-4-((R)-4-methanesulfonyl-3-methyl-piperazin-1-yl)-2,N-dimethyl-N-(4-trifluoromethyl-benzyl)-butyramide] | 0.0169 |
| C[C@@H]1CN(CCC(C)(C(=O)N(C)Cc2ccc(Cl)cc2)c2ccc(Cl)c(Cl)c2)CCN1S(C)(=O)=O (stereo partly drawn) [Example 56, N-(4-Chloro-benzyl)-2-(3,4-dichloro-phenyl)-4-((R)-4-methanesulfonyl-3-methyl-piperazin-1-yl)-2,N-dimethyl-butyramide] | 0.0265 |
| C[C@@H]1CN(CCC(C)(C(=O)NCc2ccc(C#N)cc2)c2ccc(Cl)c(Cl)c2)CCN1S(C)(=O)=O (stereo partly drawn) [Example 57, N-(4-Cyano-benzyl)-2-(3,4-dichloro-phenyl)-4-((R)-4-methanesulfonyl-3-methyl-piperazin-1-yl)-2-methyl-butyramide] | 0.161 |
| C[C@@H]1CN(CCC(C)(C(=O)N(C)Cc2cccc(C(F)(F)F)c2)c2ccc(Cl)c(Cl)c2)CCN1S(C)(=O)=O (stereo partly drawn) [Example 58, 2-(3,4-Dichloro-phenyl)-4-((R)-4-methanesulfonyl-3-methyl-piperazin-1-yl)-2,N-dimethyl-N-(3-trifluoromethyl-benzyl)-butyramide] | 0.0562 |
| C[C@@H]1CN(CCC(C)(C(=O)N(C)Cc2cccc(Cl)c2)c2ccc(Cl)c(Cl)c2)CCN1S(C)(=O)=O (stereo partly drawn) [Example 59, N-(3-Chloro-benzyl)-2-(3,4-dichloro-phenyl)-4-((R)-4-methanesulfonyl-3-methyl-piperazin-1-yl)-2,N-dimethyl-butyramide] | 0.103 |
| C[C@@H]1CN(CCC(C)(C(=O)N(C)Cc2cccc(F)c2)c2ccc(Cl)c(Cl)c2)CCN1S(C)(=O)=O (stereo partly drawn) [Example 60, 2-(3,4-Dichloro-phenyl)-N-(3-fluoro-benzyl)-4-((R)-4-methanesulfonyl-3-methyl-piperazin-1-yl)-2,N-dimethyl-butyramide] | 0.13 |
| C[C@H]1CN(CCC(C)(C(=O)N(C)Cc2ccc(-c3ccncc3)cc2)c2ccc(Cl)c(Cl)c2)CCN1S(C)(=O)=O (stereo partly drawn) [Example 61, 2-(3,4-Dichloro-phenyl)-4-((S)-4-methanesulfonyl-3-methyl-piperazin-1-yl)-2,N-dimethyl-N-(4-pyridin-4-yl-benzyl)-butyramide] | 0.247 |
| COc1ccc(CN(C)C(=O)C(C)(CCN2CCN(S(C)(=O)=O)[C@@H](C)C2)c2ccc(Cl)c(Cl)c2)cc1F (stereo partly drawn) [Example 62, 2-(3,4-Dichloro-phenyl)-N-(3-fluoro-4-methoxy-benzyl)-4-((S)-4-methanesulfonyl-3-methyl-piperazin-1-yl)-2,N-dimethyl-butyramide] | 0.216 |
| COc1ccc(C(NC(=O)C(C)(CCN2CCN(S(C)(=O)=O)[C@@H](C)C2)c2ccc(Cl)c(Cl)c2)C2CC2)cc1 (stereo partly drawn) [Example 63, N-[Cyclopropyl-(4-methoxy-phenyl)-methyl]-2-(3,4-dichloro-phenyl)-4-((S)-4-methanesulfonyl-3-methyl-piperazin-1-yl)-2-methyl-butyramide] | 0.0657 |
| C[C@H]1CN(CCC(C)(C(=O)N(C)Cc2ccc(F)c(C(F)(F)F)c2)c2ccc(Cl)c(Cl)c2)CCN1S(C)(=O)=O (stereo partly drawn) [Example 64, 2-(3,4-Dichloro-phenyl)-N-(4-fluoro-3-trifluoromethyl-benzyl)-4-((S)-4-methanesulfonyl-3-methyl-piperazin-1-yl)-2,N-dimethyl-butyramide] | 0.0168 |
| C[C@H]1CN(CCC(C)(C(=O)NCc2cc(C(F)(F)F)cc(C(F)(F)F)c2)c2ccc(Cl)c(Cl)c2)CCN1S(C)(=O)=O (stereo partly drawn) [Example 65, N-(3,5-Bis-trifluoromethyl-benzyl)-2-(3,4-dichloro-phenyl)-4-((S)-4-methanesulfonyl-3-methyl-piperazin-1-yl)-2-methyl-butyramide] | 0.0846 |
| COc1cc(CN(C)C(=O)C(C)(CCN2CCN(S(C)(=O)=O)[C@@H](C)C2)c2ccc(Cl)c(Cl)c2)ccc1OC(F)F (stereo partly drawn) [Example 66, 2-(3,4-Dichloro-phenyl)-N-(4-difluoromethoxy-3-methoxy-benzyl)-4-((S)-4-methanesulfonyl-3-methyl-piperazin-1-yl)-2,N-dimethyl-butyramide] | 0.277 |
